Test system: T1, Kras G12D protein / SOS1 exchange domain
T1 construct: Cytoskeleton, Inc. (SOS1 exchange domain only) GE02
Assay: Kras-SOS exchange assay (MANT-GDP)
Format: biochemical
Conditions: for Relative fluorescence intensity: PhP072 500 uM, no irradiation
Method: MANT-GDP loading assay: Kras^G12D protein was first buffer exchanged into low magnesium buffer (20 mM HEPES-NaOH (pH 7.5), 50 mM NaCl, 0.5 mM MgCl2) using a NAP5 column (catalog no.: 17-0583-1, Cytiva). The proteins were then incubated with 20-fold molar excess of N-methylanthraniloyl (MANT)-GDP (catalog no.: 69244, Sigma-Aldrich) in loading buffer (50 mM NaCl, 20 mM HEPES-NaOH [pH 7.5], 0.5 mM MgCl2, 10 mM EDTA, and 1 mM Dithiothreitol (DTT)) in a total volume of 200 μL at 20 °C for 90 min. The reaction was stopped by adding MgCl2 to a final concentration of 10 mM, then incubated at 20 °C for 30 min. The unbound MANT-GDP was removed using the NAP-5 column equilibrated with nucleotide exchange buffer (40 mM HEPES-NaOH (pH 7.5), 50 mM NaCl, 10 mM MgCl2, 2 mM DTT).
MANT-GDP exchange assay: First the MANT-GDP bound Kras G12D protein (in a final 1 μM molar concentration) was preincubated with the inhibitor molecules for 60 min. After the preincubation the samples were exposed to UV light for 10 min with a wavelength of 366 nm. The UV-treated MANT-GDP Kras-inhibitor mix was loaded into a black 384 well microplate. The nucleotide exchange reaction was initiated by adding 100 fold molar excess of GppNHp (catalog no.: G0635, Sigma-Aldrich), a non-hydrolyzable GTP analog and the SOS1 exchange domain (catalog no.: GE02, Cytoskeleton, Inc.) protein in 0.5 μM final concentration. The change in fluorescence intensity was measured every 30 s in room temperature for 60 min on an EnSpire plate reader (PerkinElmer, Inc.). The measured fluorescence values were fitted to a single exponential function by using GraphPad Prism 8 software.

Cc1ncc(CO)c(CNC(=O)CCC2(C)N=N2)c1O [PhP072, Cc1ncc(CO)c(c1O)CNC(=O)CCC2(C)N=N2]
Relative fluorescence intensity (0 sec): 1
Relative fluorescence intensity (30 sec): 1.013
Relative fluorescence intensity (60 sec): 0.9959
Relative fluorescence intensity (90 sec): 0.9972
Relative fluorescence intensity (120 sec): 0.9718
Relative fluorescence intensity (210 sec): 0.9336
Relative fluorescence intensity (240 sec): 0.9413
Relative fluorescence intensity (270 sec): 0.9207
Relative fluorescence intensity (300 sec): 0.9231
Relative fluorescence intensity (330 sec): 0.889
Relative fluorescence intensity (360 sec): 0.9144
Relative fluorescence intensity (390 sec): 0.8755
Relative fluorescence intensity (420 sec): 0.8829
Relative fluorescence intensity (450 sec): 0.8817
Relative fluorescence intensity (480 sec): 0.8573
Relative fluorescence intensity (510 sec): 0.8562
Relative fluorescence intensity (540 sec): 0.8393
Relative fluorescence intensity (570 sec): 0.8479
Relative fluorescence intensity (600 sec): 0.8268
Relative fluorescence intensity (630 sec): 0.8298
Relative fluorescence intensity (660 sec): 0.82
Relative fluorescence intensity (690 sec): 0.8367
Relative fluorescence intensity (720 sec): 0.8123
Relative fluorescence intensity (750 sec): 0.8188
Relative fluorescence intensity (780 sec): 0.7895
Relative fluorescence intensity (810 sec): 0.8173
Relative fluorescence intensity (840 sec): 0.8044
Relative fluorescence intensity (870 sec): 0.8078
Relative fluorescence intensity (900 sec): 0.796
Relative fluorescence intensity (930 sec): 0.7898
Relative fluorescence intensity (960 sec): 0.7738
Relative fluorescence intensity (990 sec): 0.7911
Relative fluorescence intensity (1020 sec): 0.7808
Relative fluorescence intensity (1050 sec): 0.7917
Relative fluorescence intensity (1080 sec): 0.7685
Relative fluorescence intensity (1110 sec): 0.7829
Relative fluorescence intensity (1140 sec): 0.763
Relative fluorescence intensity (1170 sec): 0.7869
Relative fluorescence intensity (1200 sec): 0.7802
Relative fluorescence intensity (1230 sec): 0.7626
Relative fluorescence intensity (1260 sec): 0.7487
Relative fluorescence intensity (1290 sec): 0.7649
Relative fluorescence intensity (1320 sec): 0.7515
Relative fluorescence intensity (1350 sec): 0.7769
Relative fluorescence intensity (1380 sec): 0.7498
Relative fluorescence intensity (1410 sec): 0.7689
Relative fluorescence intensity (1440 sec): 0.7375
Relative fluorescence intensity (1470 sec): 0.7324
Relative fluorescence intensity (1500 sec): 0.7377
Relative fluorescence intensity (1530 sec): 0.7512
Relative fluorescence intensity (1560 sec): 0.7561
Relative fluorescence intensity (1590 sec): 0.7642
Relative fluorescence intensity (1620 sec): 0.7532
Relative fluorescence intensity (1650 sec): 0.7322
Relative fluorescence intensity (1680 sec): 0.7337
Relative fluorescence intensity (1710 sec): 0.7447
Relative fluorescence intensity (1740 sec): 0.7262
Relative fluorescence intensity (1770 sec): 0.7004
Relative fluorescence intensity (1800 sec): 0.7223
Relative fluorescence intensity (1830 sec): 0.7275
Relative fluorescence intensity (1860 sec): 0.7142
Relative fluorescence intensity (1890 sec): 0.7142
Relative fluorescence intensity (1920 sec): 0.7251
Relative fluorescence intensity (1950 sec): 0.7143
Relative fluorescence intensity (1980 sec): 0.7167
Relative fluorescence intensity (2010 sec): 0.7199
Relative fluorescence intensity (2040 sec): 0.7182
Relative fluorescence intensity (2070 sec): 0.7197
Relative fluorescence intensity (2100 sec): 0.7234
Relative fluorescence intensity (2130 sec): 0.7107
Relative fluorescence intensity (2160 sec): 0.709
Relative fluorescence intensity (2190 sec): 0.6857
Relative fluorescence intensity (2220 sec): 0.7212
Relative fluorescence intensity (2250 sec): 0.7309
Relative fluorescence intensity (2280 sec): 0.698
Relative fluorescence intensity (2310 sec): 0.6941
Relative fluorescence intensity (2340 sec): 0.715
Relative fluorescence intensity (2370 sec): 0.7148
Relative fluorescence intensity (2400 sec): 0.6907
Relative fluorescence intensity (2430 sec): 0.6865
Relative fluorescence intensity (2460 sec): 0.6802
Relative fluorescence intensity (2490 sec): 0.7113
Relative fluorescence intensity (2520 sec): 0.7022
Relative fluorescence intensity (2550 sec): 0.6719
Relative fluorescence intensity (2580 sec): 0.6958
Relative fluorescence intensity (2910 sec): 0.6843
Relative fluorescence intensity (2940 sec): 0.6708
Relative fluorescence intensity (2970 sec): 0.6872
Relative fluorescence intensity (3000 sec): 0.6826
Relative fluorescence intensity (3030 sec): 0.6877
Relative fluorescence intensity (3060 sec): 0.6798
Relative fluorescence intensity (3090 sec): 0.6889
Relative fluorescence intensity (3120 sec): 0.6845
Relative fluorescence intensity (3150 sec): 0.6654
Relative fluorescence intensity (3180 sec): 0.6759
Relative fluorescence intensity (3210 sec): 0.6861
Relative fluorescence intensity (3240 sec): 0.6538
Relative fluorescence intensity (3270 sec): 0.6954
Relative fluorescence intensity (3300 sec): 0.6785
Relative fluorescence intensity (3330 sec): 0.6776
normalized signal, Kras-SOS exchange (Figure 4c PhP072 irradiation) (Php072 500 uM, irradiation, time 0 sec): 1
